Assay results published in patent US4464385A, “Treatment of diabetic complications with hydantoins” (Alcon Laboratories, Inc., priority 1982, dated 1984).

Tested on: cataracts in rats
Test: Prevention or retardation of cataracts in galactose-fed rats
Type: in vivo, rat
Conditions: 30% galactose diet, A,C,E 0.0025%, B,D 0.01%
Description: The compounds to be tested were:
Test compound/diet mixtures were formulated as follows: […]
Similarly, the 0.01% level was designed to provide a drug concentration of 20 mg per kilogram per day.
All animals were fed the Purina Laboratory Chow and water, ad libitum for a two day acclimatization period. The indicated test compound/diet mixture then was introduced to all animals on Study Day 1 and the animals were maintained on this diet throughout thirty days of the study.
Sufficient amounts of test compound/diet mixture were maintained in the food hoppers to allow the animals to eat ad libitum. All aliquots of test compound/diet mixture added to the food hoopers were weighed and the weights, as well as day of addition, recorded.
Twelve animals were assigned to each treatment with each compound at the indicated percentage by total weight of feed. All eyes were examined with a handheld ophthalmoscope and/or penlight.

CSc1ccc2c(c1)C1(CCO2)NC(=O)NC1=O (stereo not drawn) [B] was tested, and the “% of Total Eyes, + (vacuole)” value (Study Day 2) was 0%, the “% of Total Eyes, - (Normal)” value (Study Day 2) was 100.0% and the “% of Total Eyes, N (nuclear cataract)” value (Study Day 2) was 0%. The “% of Total Eyes, S (snowflake)” value (Study Day 2) was 0%, the “Number of Eyes Observed, + (vacuole)” value (Study Day 2) was 0 eyes and the “Number of Eyes Observed, - (Normal)” value (Study Day 2) was 24 eyes. For the same compound, the “Number of Eyes Observed, N (nuclear cataract)” value (shortened to “Number of Eyes Observed, N”) (Study Day 2) was 0 eyes, the “Number of Eyes Observed, S (snowflake)” value (Study Day 2) was 0 eyes and the “Number of Eyes Observed, ±” value (Study Day 2) was 0 eyes. The “% of Total Eyes, + (vacuole)” value (Study Day 3) was 0%, the “% of Total Eyes, - (Normal)” value (Study Day 3) was 100.0% and the “% of Total Eyes, N (nuclear cataract)” value (Study Day 3) was 0%. The “% of Total Eyes, S (snowflake)” value (Study Day 3) was 0%, the “Number of Eyes Observed, + (vacuole)” value (Study Day 3) was 0 eyes and the “Number of Eyes Observed, - (Normal)” value (Study Day 3) was 24 eyes. For the same compound, the “Number of Eyes Observed, N” value (Study Day 3) was 0 eyes, the “Number of Eyes Observed, S (snowflake)” value (Study Day 3) was 0 eyes and the “Number of Eyes Observed, ±” value (Study Day 3) was 0 eyes. The “% of Total Eyes, + (vacuole)” value (Study Day 4) was 0%, the “% of Total Eyes, - (Normal)” value (Study Day 4) was 100.0% and the “% of Total Eyes, N (nuclear cataract)” value (Study Day 4) was 0%. For the same compound, the “% of Total Eyes, S (snowflake)” value (Study Day 4) was 0%, the “Number of Eyes Observed, + (vacuole)” value (Study Day 4) was 0 eyes and the “Number of Eyes Observed, - (Normal)” value (Study Day 4) was 24 eyes. The “Number of Eyes Observed, N” value (Study Day 4) was 0 eyes, the “Number of Eyes Observed, S (snowflake)” value (Study Day 4) was 0 eyes and the “Number of Eyes Observed, ±” value (Study Day 4) was 0 eyes. The “% of Total Eyes, + (vacuole)” value (Study Day 5) was 0%, the “% of Total Eyes, - (Normal)” value (Study Day 5) was 91.7% and the “% of Total Eyes, N (nuclear cataract)” value (Study Day 5) was 0%. The “% of Total Eyes, S (snowflake)” value (Study Day 5) was 0%, the “Number of Eyes Observed, + (vacuole)” value (Study Day 5) was 0 eyes and the “Number of Eyes Observed, - (Normal)” value (Study Day 5) was 22 eyes. The “Number of Eyes Observed, N” value (Study Day 5) was 0 eyes, the “Number of Eyes Observed, S (snowflake)” value (Study Day 5) was 0 eyes and the “Number of Eyes Observed, ±” value (Study Day 5) was 2 eyes. The “% of Total Eyes, + (vacuole)” value (Study Day 6) was 0%, the “% of Total Eyes, - (Normal)” value (Study Day 6) was 62.5% and the “% of Total Eyes, N (nuclear cataract)” value (Study Day 6) was 0%. The “% of Total Eyes, S (snowflake)” value (Study Day 6) was 0%, the “Number of Eyes Observed, + (vacuole)” value (Study Day 6) was 0 eyes and the “Number of Eyes Observed, - (Normal)” value (Study Day 6) was 15 eyes. For the same compound, the “Number of Eyes Observed, N” value (Study Day 6) was 0 eyes, the “Number of Eyes Observed, S (snowflake)” value (Study Day 6) was 0 eyes and the “Number of Eyes Observed, ±” value (Study Day 6) was 9 eyes. For the same compound, the “% of Total Eyes, + (vacuole)” value (Study Day 8) was 8.3%, the “% of Total Eyes, - (Normal)” value (Study Day 8) was 41.6% and the “% of Total Eyes, N (nuclear cataract)” value (Study Day 8) was 0%. The “% of Total Eyes, S (snowflake)” value (Study Day 8) was 0%, the “Number of Eyes Observed, + (vacuole)” value (Study Day 8) was 2 eyes and the “Number of Eyes Observed, - (Normal)” value (Study Day 8) was 10 eyes. For the same compound, the “Number of Eyes Observed, N” value (Study Day 8) was 0 eyes, the “Number of Eyes Observed, S (snowflake)” value (Study Day 8) was 0 eyes and the “Number of Eyes Observed, ±” value (Study Day 8) was 12 eyes. The “% of Total Eyes, + (vacuole)” value (Study Day 10) was 25.0%, the “% of Total Eyes, - (Normal)” value (Study Day 10) was 37.5% and the “% of Total Eyes, N (nuclear cataract)” value (Study Day 10) was 0%. For the same compound, the “% of Total Eyes, S (snowflake)” value (Study Day 10) was 0%, the “Number of Eyes Observed, + (vacuole)” value (Study Day 10) was 6 eyes and the “Number of Eyes Observed, - (Normal)” value (Study Day 10) was 9 eyes. The “Number of Eyes Observed, N” value (Study Day 10) was 0 eyes, the “Number of Eyes Observed, S (snowflake)” value (Study Day 10) was 0 eyes and the “Number of Eyes Observed, ±” value (Study Day 10) was 9 eyes. For the same compound, the “% of Total Eyes, + (vacuole)” value (Study Day 12) was 41.6%, the “% of Total Eyes, - (Normal)” value (Study Day 12) was 29.2% and the “% of Total Eyes, N (nuclear cataract)” value (Study Day 12) was 0%. For the same compound, the “% of Total Eyes, S (snowflake)” value (Study Day 12) was 0%, the “Number of Eyes Observed, + (vacuole)” value (Study Day 12) was 10 eyes and the “Number of Eyes Observed, - (Normal)” value (Study Day 12) was 7 eyes. The “Number of Eyes Observed, N” value (Study Day 12) was 0 eyes, the “Number of Eyes Observed, S (snowflake)” value (Study Day 12) was 0 eyes and the “Number of Eyes Observed, ±” value (Study Day 12) was 7 eyes. For the same compound, the “% of Total Eyes, + (vacuole)” value (Study Day 14) was 78.0%, the “% of Total Eyes, - (Normal)” value (Study Day 14) was 12.5% and the “% of Total Eyes, N (nuclear cataract)” value (Study Day 14) was 0%. For the same compound, the “% of Total Eyes, S (snowflake)” value (Study Day 14) was 0%, the “Number of Eyes Observed, + (vacuole)” value (Study Day 14) was 18 eyes and the “Number of Eyes Observed, - (Normal)” value (Study Day 14) was 3 eyes. The “Number of Eyes Observed, N” value (Study Day 14) was 0 eyes, the “Number of Eyes Observed, S (snowflake)” value (Study Day 14) was 0 eyes and the “Number of Eyes Observed, ±” value (Study Day 14) was 3 eyes. For the same compound, the “% of Total Eyes, + (vacuole)” value (Study Day 16) was 83.3%, the “% of Total Eyes, - (Normal)” value (Study Day 16) was 0% and the “% of Total Eyes, N (nuclear cataract)” value (Study Day 16) was 0%. For the same compound, the “% of Total Eyes, S (snowflake)” value (Study Day 16) was 0%, the “Number of Eyes Observed, + (vacuole)” value (Study Day 16) was 20 eyes and the “Number of Eyes Observed, - (Normal)” value (Study Day 16) was 0 eyes. The “Number of Eyes Observed, N” value (Study Day 16) was 0 eyes, the “Number of Eyes Observed, S (snowflake)” value (Study Day 16) was 0 eyes and the “Number of Eyes Observed, ±” value (Study Day 16) was 4 eyes. For the same compound, the “% of Total Eyes, + (vacuole)” value (Study Day 18) was 95.8%, the “% of Total Eyes, - (Normal)” value (Study Day 18) was 0% and the “% of Total Eyes, N (nuclear cataract)” value (Study Day 18) was 0%. The “% of Total Eyes, S (snowflake)” value (Study Day 18) was 0%, the “Number of Eyes Observed, + (vacuole)” value (Study Day 18) was 23 eyes and the “Number of Eyes Observed, - (Normal)” value (Study Day 18) was 0 eyes. For the same compound, the “Number of Eyes Observed, N” value (Study Day 18) was 0 eyes, the “Number of Eyes Observed, S (snowflake)” value (Study Day 18) was 0 eyes and the “Number of Eyes Observed, ±” value (Study Day 18) was 1 eyes. For the same compound, the “% of Total Eyes, + (vacuole)” value (Study Day 20) was 91.7%, the “% of Total Eyes, - (Normal)” value (Study Day 20) was 0% and the “% of Total Eyes, N (nuclear cataract)” value (Study Day 20) was 0%. The “% of Total Eyes, S (snowflake)” value (Study Day 20) was 4.2%, the “Number of Eyes Observed, + (vacuole)” value (Study Day 20) was 22 eyes and the “Number of Eyes Observed, - (Normal)” value (Study Day 20) was 0 eyes. For the same compound, the “Number of Eyes Observed, N” value (Study Day 20) was 0 eyes, the “Number of Eyes Observed, S (snowflake)” value (Study Day 20) was 1 eyes and the “Number of Eyes Observed, ±” value (Study Day 20) was 1 eyes. For the same compound, the “% of Total Eyes, + (vacuole)” value (Study Day 22) was 70.8%, the “% of Total Eyes, - (Normal)” value (Study Day 22) was 0% and the “% of Total Eyes, N (nuclear cataract)” value (Study Day 22) was 0%. The “% of Total Eyes, S (snowflake)” value (Study Day 22) was 29.2%, the “Number of Eyes Observed, + (vacuole)” value (Study Day 22) was 17 eyes and the “Number of Eyes Observed, - (Normal)” value (Study Day 22) was 0 eyes. The “Number of Eyes Observed, N” value (Study Day 22) was 0 eyes, the “Number of Eyes Observed, S (snowflake)” value (Study Day 22) was 7 eyes and the “Number of Eyes Observed, ±” value (Study Day 22) was 0 eyes. The “% of Total Eyes, + (vacuole)” value (Study Day 24) was 45.8%, the “% of Total Eyes, - (Normal)” value (Study Day 24) was 0% and the “% of Total Eyes, N (nuclear cataract)” value (Study Day 24) was 0%. The “% of Total Eyes, S (snowflake)” value (Study Day 24) was 54.2%, the “Number of Eyes Observed, + (vacuole)” value (Study Day 24) was 11 eyes and the “Number of Eyes Observed, - (Normal)” value (Study Day 24) was 0 eyes. The “Number of Eyes Observed, N” value (Study Day 24) was 0 eyes, the “Number of Eyes Observed, S (snowflake)” value (Study Day 24) was 13 eyes and the “Number of Eyes Observed, ±” value (Study Day 24) was 0 eyes. The “% of Total Eyes, + (vacuole)” value (Study Day 26) was 20.8%, the “% of Total Eyes, - (Normal)” value (Study Day 26) was 0% and the “% of Total Eyes, N (nuclear cataract)” value (Study Day 26) was 0%. For the same compound, the “% of Total Eyes, S (snowflake)” value (Study Day 26) was 79.2%, the “Number of Eyes Observed, + (vacuole)” value (Study Day 26) was 5 eyes and the “Number of Eyes Observed, - (Normal)” value (Study Day 26) was 0 eyes. The “Number of Eyes Observed, N” value (Study Day 26) was 0 eyes, the “Number of Eyes Observed, S (snowflake)” value (Study Day 26) was 19 eyes and the “Number of Eyes Observed, ±” value (Study Day 26) was 0 eyes. For the same compound, the “% of Total Eyes, + (vacuole)” value (Study Day 28) was 8.3%, the “% of Total Eyes, - (Normal)” value (Study Day 28) was 0% and the “% of Total Eyes, N (nuclear cataract)” value (Study Day 28) was 0%. The “% of Total Eyes, S (snowflake)” value (Study Day 28) was 91.7%, the “Number of Eyes Observed, + (vacuole)” value (Study Day 28) was 2 eyes and the “Number of Eyes Observed, - (Normal)” value (Study Day 28) was 0 eyes. For the same compound, the “Number of Eyes Observed, N” value (Study Day 28) was 0 eyes, the “Number of Eyes Observed, S (snowflake)” value (Study Day 28) was 22 eyes and the “Number of Eyes Observed, ±” value (Study Day 28) was 0 eyes. For the same compound, the “% of Total Eyes, + (vacuole)” value (Study Day 30) was 4.2%, the “% of Total Eyes, - (Normal)” value (Study Day 30) was 0% and the “% of Total Eyes, N (nuclear cataract)” value (Study Day 30) was 0%. For the same compound, the “% of Total Eyes, S (snowflake)” value (Study Day 30) was 95.8%, the “Number of Eyes Observed, + (vacuole)” value (Study Day 30) was 1 eyes and the “Number of Eyes Observed, - (Normal)” value (Study Day 30) was 0 eyes. For the same compound, the “Number of Eyes Observed, N” value (Study Day 30) was 0 eyes, the “Number of Eyes Observed, S (snowflake)” value (Study Day 30) was 23 eyes and the “Number of Eyes Observed, ±” value (Study Day 30) was 0 eyes.
